Experimental data published in patent US9730871B2, “Antiperspirant/deodorant cosmetic compositions” (Colgate-Palmolive Company, priority 2012, dated 2017).

Test system: staphylococcus hemolyticus
Experiment: Growth of underarm bacteria on agar plates coated with stick formulation, colony count
Format: cell-based
Conditions: for Bacteria count: 37° C., 16 hours, 0% control count 172; for Effect on growth / colony formation of staphylococcus hemolyticus (in words): sticks with 5-15% lauric acid coated on agar
Procedure: Four simplified stick compositions, each comprising 20% stearyl alcohol gellant and 0%, 5%, 10% and 15% lauric acid, respectively, were prepared. Stearyl alcohol is not considered to be an antibacterial agent. The remainder of each stick consisted of C12-C15 alkyl benzoates, which are synthetic emollients with no antibacterial activity.
A thin layer of each formulation was coated onto an agar plate, by moving the stick across the surface of the plate. A solution of staphylococcus hemolyticus bacteria at 0.1 optical density as measured by UV spectroscopy was diluted by a factor of 40. […] of the bacterial solution was then applied to the agar plate. The plate was incubated at 37° C. for 16 hours. The number of colonies formed on each plate was then recorded.

CCCCCCCCCCCC(=O)O [Laurie acid, lauric acid]
Bacteria count (5% lauric acid in stick with 20% stearyl alcohol and C12-C15 alkyl benzoates): 120
Bacteria count (10% lauric acid in stick with 20% stearyl alcohol and C12-C15 alkyl benzoates): 102
Bacteria count (15% lauric acid in stick with 20% stearyl alcohol and C12-C15 alkyl benzoates): 49
Effect on growth / colony formation of staphylococcus hemolyticus (in words): inhibit the growth
Effect on growth / colony formation of staphylococcus hemolyticus (in words) (listed as lauric acid): reduction on the number of bacterial colonies formed
